The values that follow come from US6589988B1, “Pharmaceutical composition with antitumor activity on the basis of carboplatin” (Pliva-Lachema, a.s., priority 1998, dated 2003).

SMILES strings stand for the structures.

Format in all cases: physicochemical
The nature of data set [1]: Decomposition rate of carboplatin in aqueous solution in dependence on the concentration of 1,1-cyclobutanedicarboxylic acid. Particulars: for decomposition rate of carboplatin (r): carboplatin 10.0 mg·ml^−1. How it is done:
The rate of hydrolysis of carboplatin to a monoaquacomplex of the formula (1) has been presumed to be of the first order in relation to carboplatin concentration and independent to water concentration: [formula]
Dependences on concentration according to equations /1-2/ and /1-3/ were evaluated by linear regression and the rate constant and/or the reaction rate of the carboplatin decomposition have been calculated.
Study of the decomposition rate of carboplatin in dependence on the concentration of 1,1-cyclobutanedicarboxylic acid.
Mean starting concentration of carboplatin was 10.0 mg·ml^−1. Starting concentrations of 1,1-cyclobutanedicarboxylic acid were 0.017, 0.129, 1.189 and 14.804 mg·ml^−1. The temperature and relative humidity during storage was 25° C./60% and 35° C./60%. The vials with samples were stored stopper upright.
The decrease of carboplatin content was calculated as a difference of carboplatin content between a reference and measured sample. The concentration data were evaluated according to equation /1-2/, whereby, due to a good linear relation, the data were evaluated by linear regression.

A short description of data set [2]: Decomposition rates of carboplatin calculated from equation /1-7/ (Arrhenius evaluation). Particulars: for calculated decomposition rate of carboplatin (r) / rate increase: 25° C.; for calculated decomposition rate of carboplatin (r): from equation /1-7/. How it is done: After evaluation of Arrhenius equation, the activation energy EA was calculated:
For the reference temperature of 35° C., at which the best determination coefficient has been obtained (R^2=0.99), the following dependence of the decomposition rate of carboplatin on the concentration of the present 1,1-cyclobutanedicarboxylic acid and on the temperature may be obtained from the equations /1-5/ and /1-6/: [formula]
wherein r is expressed in mol·m^−3·s^−1 and CCBDCA is expressed in mol·m^−3.
Based on the equation /1-7/, it is possible to calculate decomposition rates of carboplatin at the temperature of 25° C. and for different concentrations of 1,1-cyclobutanedicarboxylic acid: […]

Data set [3] in a line: Decomposition rate of carboplatin in aqueous solution in dependence on the concentration of 1,1-cyclobutanedicarboxylic acid. Particulars: 0.1 M phosphate buffer at 37° C. versus 1.4·10^−4M CBDCA-buffer at 40° C.

For `N.N.O=C([O-])C1(C(=O)[O-])CCC1.[Pt+2]` [carboplatin, cis-diammin-1,1-cyclobutanedicarboxylatoplatinum(II) complex], the “increase of the decomposition rate of carboplatin” value in data set [1] (enhancement of temperature of 10° C.) was “approximately tenfold”. Further, the “decomposition rate of carboplatin (r)” value in data set [1] (storage 25° C./60% RH, CBDCA 0.017 mg·ml^−1) is recorded as 4.0 · 10^−9 mol·m^−3·s^−1; in data set [1] (storage 25° C./60% RH, CBDCA 0.129 mg·ml^−1), 4.0 · 10^−9 mol·m^−3·s^−1; in data set [1] (storage 25° C./60% RH, CBDCA 1.189 mg·ml^−1), 9.4 · 10^−9 mol·m^−3·s^−1; in data set [1] (storage 25° C./60% RH, CBDCA 14.804 mg·ml^−1), 2.2 · 10^−8 mol·m^−3·s^−1; in data set [1] (storage 35° C./60% RH, CBDCA 0.017 mg·ml^−1), 4.9 · 10^−8 mol·m^−3·s^−1; in data set [1] (storage 35° C./60% RH, CBDCA 0.129 mg·ml^−1), 5.1 · 10^−8 mol·m^−3·s^−1. Further, the “decomposition rate of carboplatin (r)” value is on record as 7.3 · 10^−8 mol·m^−3·s^−1 in data set [1] (storage 35° C./60% RH, CBDCA 1.189 mg·ml^−1) and 1.7 · 10^−7 mol·m^−3·s^−1 in data set [1] (storage 35° C./60% RH, CBDCA 14.804 mg·ml^−1). In addition, the “calculated decomposition rate of carboplatin (r)” value was 4.48·10^−9 mol·m^−3·s^−1 in data set [2] (CBDCA 0.005 mg/ml), 4.58·10^−9 mol·m^−3·s^−1 in data set [2] (CBDCA 0.150 mg/ml (as in Ribocarbol L)) and 4.65·10^−9 mol·m^−3·s^−1 in data set [2] (CBDCA 0.250 mg/ml (lower limit of EP 642 792)). For the same compound, the rate increase in data set [2] (CBDCA 0.150 mg/ml versus 0.005 mg/ml) was 2.2%; in data set [2] (CBDCA 0.250 mg/ml versus 0.005 mg/ml), 4%. Further, the “activation energy EA of carboplatin decomposition” value in data set [2] (Arrhenius equation, from rates at 25 and 35° C.) is recorded as 190 000 J·mol^−1. Also, the “rate constant k, ratio” value in data set [3] is on record as “approximately 200 times”.
